The record followed here is ChEMBL document CHEMBL6127043, “Design and synthesis of pyrano[2,3-c]pyrazole-4-aminoquinoline hybrids as effective antimalarial compounds” (Eur J Med Chem, 2024).

What is called IC50 is the concentration at which inhibition is half-maximal.

The structures appear in SMILES notation.

Data set [1] has as its system Plasmodium falciparum. In words: Antimalarial activity against chloroquine-sensitive ring stage Plasmodium falciparum 3D7 infected in erythrocytes assessed as reduction in parasite growth measured at 48 hrs interval by Giemsa staining based microscopic analysis. Format: functional, organism-based. The settings on record: 3D7, Erythrocyte.
For data set [2], the system named is Plasmodium falciparum. Kind of data set: Antimalarial activity against chloroquine-resistant ring stage Plasmodium falciparum K1 infected in erythrocytes assessed as reduction in parasite growth measured at 48 hrs interval by Giemsa staining based microscopic analysis. Particulars: K1, Erythrocyte. It counts as functional, organism-based.
Data set [3] can be described thus: Cytotoxicity against human WRL68 cells assessed as reduction in cell viability incubated for 72 hrs by MTT assay. Format: toxicity, cell-based.
A short description of data set [4]: Selectivity index, ratio of IC50 for cytotoxicity against human WRL68 cells to IC50 for antimalarial activity against Plasmodium falciparum 3D7 infected in erythrocytes. Format: toxicity, cell-based. Particulars: WRL68 cells versus Plasmodium falciparum 3D7 in erythrocytes, read-out: Ratio IC50.
A short description of data set [5]: Selectivity index, ratio of IC50 for cytotoxicity against human WRL68 cells to IC50 for antimalarial activity against Plasmodium falciparum K1 infected in erythrocytes. Format: toxicity, cell-based. Particulars: WRL68 cells versus Plasmodium falciparum K1 in erythrocytes, read-out: Ratio IC50.
Data set [6] relates to Plasmodium falciparum. In words: Resistance index, ratio of IC50 for antimalarial activity against chloroquine resistant Plasmodium falciparum K1 infected in erythrocytes to IC50 for antimalarial activity against chloroquine sensitive Plasmodium falciparum 3D7 infected in erythrocytes. It counts as functional.
The subject of data set [7] is Plasmodium falciparum. In words: Antimalarial activity against Plasmodium falciparum NF54 incubated for 48 hrs by NBT reagent based assay. Particulars: NF54, 48 h. It counts as functional, organism-based.
The nature of data set [8]: Selectivity index, ratio of IC50 for cytotoxicity against African green monkey Vero cells to IC50 for antimalarial activity against Plasmodium falciparum W2. Format: toxicity, cell-based. The settings on record: Vero cells versus Plasmodium falciparum W2, read-out: Ratio IC50.
Data set [9] relates to Plasmodium falciparum. Kind of data set: Antimalarial activity against chloroquine-resistant Plasmodium falciparum K1 incubated for 72 hrs by SYBR green I dye based fluorescence analysis. It counts as functional, organism-based. Particulars: K1, 72 h.

In the case of `CCOC(=O)c1nn(CCNc2ccnc3cc(Cl)ccc23)c2c1C(c1cccc(OCC)c1)C(C#N)=C(N)O2` (stereo not drawn), the IC50 is 68 nM in data set [1] and 26 nM in [2]. Moreover, in data set [3], the IC50 at 72 h came out at 20900 nM. The selectivity ratio in [4] was determined as 308; in [5], 815. Besides, the “Ratio IC50” value in [6] is reported as 0.38.

For `CCOC(=O)c1nn(CCNc2ccnc3cc(Cl)ccc23)c2c1C(c1ccco1)C(C#N)=C(N)O2` (stereo not drawn), the values for the half-maximal inhibitory concentration (IC50) in data set [1] and in data set [2] were 25 nM and 207 nM, respectively. Besides, in [3], the IC50 at 72 h worked out at 47600 nM. Further, the selectivity ratio was found to be 1920 in data set [4] and 230 in [5]. For the same compound, the “Ratio IC50” value in data set [6] turned out to be 8.34.

In turn, `O=C(/C=C/c1ccccc1Br)c1ccc(S(=O)(=O)NCCCNc2ccnc3cc(Cl)ccc23)cc1` returned an IC50 in data set [7] of 100 nM.

In the case of `CCOC(=O)c1nn(CCNc2ccnc3cc(Cl)ccc23)c2c1C(c1ccc(C#N)cc1)C(C#N)=C(N)O2` (stereo not drawn), the values for the IC50 in data set [1] and in [2] were 19 nM and 37 nM, respectively. For the same compound, in [3], the IC50 at 72 h is above 183000 nM. Besides, the selectivity ratio in [4] is above 9450; in data set [5] it was above 4920. In addition, the “Ratio IC50” value in [6] worked out at 1.92.

In the case of `CCOC(=O)c1nn(CCNc2ccnc3cc(Cl)ccc23)c2c1C(c1ccc(C(=O)O)cc1)C(C#N)=C(N)O2` (stereo not drawn), the IC50 turned out to be 38 nM in data set [1] and 210 nM in [2]. Also, the IC50 at 72 h in data set [3] came out at 86500 nM. For the same compound, the selectivity ratio is 2280 in [4] and 411 in data set [5]. Also, the “Ratio IC50” value in [6] is on record as 5.53.

As to `CCOC(=O)c1nn(CCNc2ccnc3cc(Cl)ccc23)c2c1C(c1ccccc1)C(C#N)=C(N)O2` (stereo not drawn), the values for the half-inhibitory concentration (IC50) in data set [1] and in data set [2] were 19 nM and 419 nM, respectively. The IC50 at 72 h in data set [3] stood at 81500 nM. Besides, the values for the selectivity ratio in [4] and in data set [5] were 4360 and 195, respectively. The “Ratio IC50” value in data set [6] turned out to be 22.39.

Take `CCOC(=O)c1nn(CCNc2ccnc3cc(Cl)ccc23)c2c1C(c1c(O)ccc3ccccc13)C(C#N)=C(N)O2` (stereo not drawn): the IC50 worked out at 301 nM in data set [1] and 20 nM in data set [2]. Moreover, in data set [3], the IC50 at 72 h was determined as 6690 nM. Also, the selectivity ratio came out at 22 in data set [4] and 334 in data set [5]. Further, in data set [6], the “Ratio IC50” value is 0.07.

Turning to `CCOC(=O)c1nn(CCNc2ccnc3cc(Cl)ccc23)c2c1C(c1ccc(OCC)cc1)C(C#N)=C(N)O2` (stereo not drawn), the IC50 is 24 nM in [1] and 86 nM in [2]. Besides, in [3], the IC50 at 72 h was found to be 6980 nM. In addition, the figures for the selectivity ratio in data set [4] and in [5] were 290 and 81, respectively. Besides, in data set [6], the “Ratio IC50” value amounted to 3.57.

Consider `CCOC(=O)c1nn(CCNc2ccnc3cc(Cl)ccc23)c2c1C(c1ccc(O)c(Br)c1)C(C#N)=C(N)O2` (stereo not drawn), for which the IC50 amounted to 23 nM in [1] and 232 nM in data set [2]. Besides, the IC50 at 72 h in data set [3] was 61600 nM. The selectivity ratio came out at 2650 in data set [4] and 265 in [5]. The “Ratio IC50” value in data set [6] amounted to 10.

Take `CCOC(=O)c1nn(CCNc2ccnc3cc(Cl)ccc23)c2c1C(c1ccc(Br)cc1)C(C#N)=C(N)O2` (stereo not drawn): the figures for the IC50 in data set [1] and in data set [2] were 33 nM and 19 nM, respectively. In data set [3], the IC50 at 72 h was 5850 nM. The values for the selectivity ratio in data set [4] and in [5] were 178 and 309, respectively. In data set [6], the “Ratio IC50” value worked out at 0.58.

On to `CCOC(=O)c1nn(CCNc2ccnc3cc(Cl)ccc23)c2c1C(c1ccc(O)cc1)C(C#N)=C(N)O2` (stereo not drawn), for which the IC50 came to 15 nM in [1] and 2750 nM in [2]. For the same compound, the IC50 at 72 h in [3] was found to be 48600 nM. For the same compound, the selectivity ratio in data set [4] was 3200; in data set [5], 18. Further, the “Ratio IC50” value in [6] is given as 180.66.

Consider `CCOC(=O)c1nn(CCNc2ccnc3cc(Cl)ccc23)c2c1C(c1ccc(Cl)cc1)C(C#N)=C(N)O2` (stereo not drawn), for which the IC50 in data set [1] came out at 26 nM; in data set [2], 48 nM. The IC50 at 72 h in data set [3] is 12100 nM. Besides, the selectivity ratio came out at 467 in data set [4] and 252 in data set [5]. Besides, the “Ratio IC50” value in [6] is 1.85.

In the case of `CCOC(=O)c1nn(CCNc2ccnc3cc(Cl)ccc23)c2c1C(c1ccccn1)C(C#N)=C(N)O2` (stereo not drawn), the figures for the concentration for half-maximal inhibition (IC50) in data set [1] and in data set [2] were 21 nM and 24 nM, respectively. For the same compound, in [3], the IC50 at 72 h was 90500 nM. The selectivity ratio is 4350 in data set [4] and 3780 in [5]. The “Ratio IC50” value in data set [6] is on record as 1.15.

Take `CCOC(=O)c1nn(CCNc2ccnc3cc(Cl)ccc23)c2c1C(c1cccc([N+](=O)[O-])c1)C(C#N)=C(N)O2` (stereo not drawn): the half-maximal inhibitory concentration (IC50) stood at 28 nM in [1] and 106 nM in data set [2]. Besides, in data set [3], the IC50 at 72 h was 35400 nM. Further, the selectivity ratio in data set [4] is 1260; in [5], 333. Moreover, the “Ratio IC50” value in data set [6] came out at 3.8.

As to `CCOC(=O)c1nn(CCNc2ccnc3cc(Cl)ccc23)c2c1C(c1cccs1)C(C#N)=C(N)O2` (stereo not drawn), the figures for the IC50 in [1] and in data set [2] were 23 nM and 37 nM, respectively. Further, the IC50 at 72 h in data set [3] was determined as 59500 nM. Further, the figures for the selectivity ratio in data set [4] and in data set [5] were 2570 and 1590, respectively. For the same compound, the “Ratio IC50” value in data set [6] is on record as 1.62.

Turning to `CCOC(=O)c1nn(CCNc2ccnc3cc(Cl)ccc23)c2c1C(c1ccc(O)cc1O)C(C#N)=C(N)O2` (stereo not drawn), the IC50 in [1] is 19 nM; in data set [2], 250 nM. Further, the IC50 at 72 h in data set [3] was 23200 nM. For the same compound, the results for the selectivity ratio in [4] and in data set [5] were 1220 and 93, respectively. For the same compound, the “Ratio IC50” value in data set [6] is 13.13.

As for `CCOC(=O)c1nn(CCNc2ccnc3cc(Cl)ccc23)c2c1C(c1ccccc1OC)C(C#N)=C(N)O2` (stereo not drawn), the results for the IC50 in data set [1] and in data set [2] were 15 nM and 592 nM, respectively. The IC50 at 72 h in data set [3] was 26100 nM. Moreover, the selectivity ratio in [4] was determined as 1730; in [5] it was 44. The “Ratio IC50” value in data set [6] worked out at 39.18.

With `CCOC(=O)c1nn(CCNc2ccnc3cc(Cl)ccc23)c2c1C(c1ccc([N+](=O)[O-])cc1)C(C#N)=C(N)O2` (stereo not drawn), the results for the IC50 in data set [1] and in [2] were 110 nM and 294 nM, respectively. Further, the IC50 at 72 h in data set [3] stood at 56900 nM. Besides, the values for the selectivity ratio in data set [4] and in data set [5] were 563 and 193, respectively. The “Ratio IC50” value in [6] is listed as 2.92.

As to `CCN(CC)CCCC(C)Nc1ccnc2cc(Cl)ccc12` (stereo not drawn) [CHLOROQUINE PHOSPHATE], in [3], the IC50 at 72 h came out at 60600 nM.

With `CCOC(=O)c1nn(CCNc2ccnc3cc(Cl)ccc23)c2c1C(c1cccc(O)c1)C(C#N)=C(N)O2` (stereo not drawn), the IC50 in [1] is 17 nM; in [2] it was 1340 nM. In data set [3], the 50% inhibitory concentration (IC50) at 72 h worked out at 68600 nM. The values for the selectivity ratio in [4] and in data set [5] were 3960 and 51, respectively. The “Ratio IC50” value in [6] is given as 77.46.

Regarding `O=C1c2ccc(N3CCN(CCO)CC3)cc2C(=O)N1CCCNc1ccnc2cc(Cl)ccc12`, the selectivity ratio in [8] is above 4200.

In [9], `Clc1ccc2c(NCCn3cncc3C3CCCC3)ccnc2c1` had an IC50 of 340 nM.

As to `CCOC(=O)c1nn(CCNc2ccnc3cc(Cl)ccc23)c2c1C(c1ccc(OC)cc1)C(C#N)=C(N)O2` (stereo not drawn), the IC50 was found to be 21 nM in [1] and 254 nM in data set [2]. Further, the IC50 at 72 h in data set [3] was 131000 nM. For the same compound, the selectivity ratio in [4] was determined as 6220; in data set [5], 514. The “Ratio IC50” value in data set [6] is given as 12.1.
